What follows are molecules tested on Ba/F3-CDM cells (Ba/F3 transfected with CD8-MerTK) (assay: In cell MER kinase assay, Ba/F3-CDM cell proliferation without IL-3 (Celltiter-Glo, GI50)). Settings: 48 hours, read-out: Cell growth inhibition (GI50).
Assay type: cell-based, murine
Protocol: In Cell MER Kinase Assay Using BaF3 Cellular System
To establish an in cell kinase assay for MerTK kinase, the IL-3 dependent Ba/F3 cells of murine lymphoid origin was transfected with CD8-MerTK. […] For a routine cellular assay, Ba/F3-CDM cells were seeded at 2,000 cells per well in 384-well cell culture plate containing DMEM/10% FBS culture media and incubated for 24 hours before addition of compounds pre-diluted in culture media. Following compound treatment, cells were further incubated for 48 hours and the proliferation was measured. To discriminate a Ba/F3 growth inhibition by a specific inhibition of MerTK kinase following compound treatment vs growth inhibition due to a non-specific unintended cytotoxicity of compounds, we routinely carried out control sets of Ba/F3 cells in parallel that grown in IL3-supplemented growth media. In the presence of IL-3, the proliferation of Ba/F3 is no longer dependent on the MerTK activity. Cell growth and proliferation was measured with Celltiter-Glo™ system (Promega, USA) according to the manufacturer's instruction. The half-maximal growth inhibitory concentration (GI50) value was calculated with Prism6.0 software (GraphPad, USA).
Work on `Cn1cc(-c2cnc(N)c(C(=O)N[C@H]3CCC[C@@H]3OCc3ccc(-c4ccc(CN5CCN(CC(C)(C)O)CC5)cc4)cc3)c2)cn1` [Example 182, 2-amino-N-((1S,2S)-2-((4′-((4-(2-hydroxy-2-methylpropyl)-piperazin-1-yl)methyl)-[1,1′-biphenyl]-4-yl)methoxy)cyclopentyl)-5-(1-methyl-1H-pyrazol-4-yl)nicotinamide] yielded a GI50 of less than 100 nM.
For `Cn1cc(-c2cnc(N)c(C(=O)N[C@H]3CCC[C@@H]3OCc3ccc(C#CCCO)cc3)c2)cn1` [Example 249, 2-amino-N-((1S,2S)-2-((4-(4-hydroxybut-1-yn-1-yl)benzyl)oxy)-cyclopentyl)-5-(1-methyl-1H-pyrazol-4-yl)nicotinamide], the GI50 was greater than 1000 nM.
Molecule `Cn1cc(-c2cnc(N)c(C(=O)N[C@H]3CCC[C@@H]3OCc3ccc(C#CCCCCO)cc3)c2)cn1` [Example 251, 2-amino-N-((1S,2S)-2-((4-(6-hydroxyhex-1-yn-1-yl)benzyl)oxy)-cyclopentyl)-5-(1-methyl-1H-pyrazol-4-yl)nicotinamide] has a GI50 greater than 1000 nM.
In the case of `CCN1CCN(Cc2ccc(-c3ccc(CO[C@H]4CCC[C@@H]4NC(=O)c4cc(-c5cnn(C)c5)cnc4N)cc3)cc2)CC1` [Example 183, 2-amino-N-((1S,2S)-2-((4′-((4-ethylpiperazin-1-yl)methyl)-[1,1′-biphenyl]-4-yl)methoxy)cyclopentyl)-5-(1-methyl-1H-pyrazol-4-yl)nicotinamide], the GI50 is reported as less than 100 nM.
`CCc1cc(CO[C@H]2CNC[C@@H]2NC(=O)c2cc(-c3cccnc3)cnc2N)ccc1C` [Example 396, 6-amino-N-((3S,4S)-4-((3-ethyl-4-methylbenzyl)oxy)pyrrolidin-3-yl)-[3,3′-bipyridine]-5-carboxamide] showed a GI50 greater than 1000 nM.
Work on `CN1CCN(CCc2ccc(-c3ccc(CO[C@H]4CCC[C@@H]4NC(=O)c4cc(-c5cnn(C)c5)cnc4N)cc3)cc2)CC1` [Example 161, 2-amino-5-(1-methyl-1H-pyrazol-4-yl)-N-((1S,2S)-2-((4′-(2-(4-methylpiperazin-1-yl)ethyl)-[1,1′-biphenyl]-4-yl)methoxy)cyclopentyl)nicotinamide] yielded a GI50 of less than 100 nM.
Molecule `CN1CCN(Cc2ccc(-c3ccc(CO[C@H]4CCC[C@@H]4NC(=O)c4cc(-c5ccc(CN6CCN(C)CC6)cc5)cnc4N)cc3)cc2)CC1` [Example 368, 2-amino-N-((1S,2S)-2-((4′-((4-methylpiperazin-1-yl)methyl)-[1,1′-biphenyl]-4-yl)methoxy)cyclopentyl)-5-(4-((4-methylpiperazin-1-yl)methyl)phenyl)nicotinamide] has a GI50 of less than 100 nM.
Molecule `Cn1cc(-c2cnc(N)c(C(=O)N[C@H]3COC[C@@H]3OCc3ccc(-c4ccc(CN5CCN(CCO)CC5)c(C(F)(F)F)c4)cc3)c2)cn1` [Example 452] has a GI50 of less than 100 nM.
With `C[C@@H](c1ccc(-c2ccc(CO[C@H]3CCC[C@@H]3NC(=O)c3cc(-c4cnn(C)c4)cnc3N)cc2)cc1)N1CCN(C)CC1` [Example 215] the GI50 was less than 100 nM.
For `CN1CCC(Cc2ccc(-c3ccc(CO[C@H]4CCC[C@@H]4NC(=O)c4cc(-c5cnn(C)c5)cnc4N)cc3)cc2)CC1` [Example 239, 2-amino-5-(1-methyl-1H-pyrazol-4-yl)-N-((1S,2S)-2-((4′-((1-methylpiperidin-4-yl)methyl)-[1,1′-biphenyl]-4-yl)methoxy)cyclopentyl)nicotinamide], the GI50 was less than 100 nM.
`CN1C[C@H](NC(=O)c2cc(-c3cnn(C)c3)cnc2N)[C@@H](OCc2ccc(-c3ccc(CN4CCN(CCO)CC4)c(C(F)(F)F)c3)cc2)C1` [Example 445, 2-amino-N-((3S,4S)-4-((4′-((4-(2-hydroxyethyl)piperazin-1-vi)-methyl)-3′-(trifluoromethyl)-[1,1′-biphenyl]-4-yl)methoxy)-1-methylpyrrolidin-3-yl)-5-(1-methyl-1H-pyrazol-4-yl)nicotinamide] was tested, and the GI50 was less than 100 nM.
`Cn1cc(-c2cnc(N)c(C(=O)N[C@H]3CCC[C@@H]3OCc3ccc(-c4ccc(CN5CCN(CCO)CC5)c(C(F)(F)F)c4)cc3)c2)cn1` [Example 205, 2-amino-N-((1S,2S)-2-((4′-((4-(2-hydroxyethyl)piperazin-1-yl)methyl)-3′-(trifluoromethyl)-[1,1′-biphenyl]-4-yl)methoxy)cyclopentyl)-5-(1-methyl-1H-pyrazol-4-yl)nicotinamide] was tested, and the GI50 was less than 100 nM.
`CN1CCN(Cc2ccc(-c3ccc(CO[C@H]4CCC[C@@H]4NC(=O)c4cc(-c5ccc(CN6CCOCC6)cc5)cnc4N)cc3)cc2)CC1` [Example 379, 2-amino-N-((1S,2S)-2-((4′-((4-methylpiperazin-1-yl)methyl)-[1,1′-biphenyl]-4-yl)methoxy)cyclopentyl)-5-(4-(morpholinomethyl)phenyl)nicotinamide] gave a GI50 of less than 100 nM.
Work on `CC(c1ccc(-c2ccc(CO[C@H]3CCC[C@@H]3NC(=O)c3cc(-c4cnn(C)c4)cnc3N)cc2)cc1)N1C[C@@H](C)N(C)[C@@H](C)C1` (stereo partly drawn) [Example 209, 2-amino-5-(1-methyl-1H-pyrazol-4-yl)-N-((1S,2S)-2-((4′-(1-((3S,5R)-3,4,5-trimethylpiperazin-1-yl)ethyl)-[1,1′-biphenyl]-4-yl)methoxy)-cyclopentyl)nicotinamide] yielded a GI50 of less than 100 nM.
For `Cn1cc(-c2cnc(N)c(C(=O)N[C@H]3CNC[C@@H]3OCc3ccc(-c4ccc(CN5CCN(CCO)CC5)cc4)cc3)c2)cn1` [Example 446, 2-amino-N-((3S,4S)-4-((4′-((4-(2-hydroxyethyl)piperazin-1-yl)-methyl)-[1,1′-biphenyl]-4-yl)methoxy)pyrrolidin-3-yl)-5-(1-methyl-1H-pyrazol-4-yl)-nicotinamide], the GI50 was greater than 1000 nM.
`CN1CCN(Cc2ccc(-c3ccc(CO[C@H]4CCC[C@@H]4NC(=O)c4cc(-c5cnn(C6CCOCC6)c5)cnc4N)cc3)cc2)CC1` [Example 380, 2-amino-N-((1S,2S)-2-((4′-((4-methylpiperazin-1-yl)methyl)-[1,1′-biphenyl]-4-yl)methoxy)cyclopentyl)-5-(1-(tetrahydro-2H-pyran-4-yl)-1H-pyrazol-4-vi)nicotinamide] showed a GI50 of less than 100 nM.
Work on `COc1ccc(-c2cnc(N)c(C(=O)N[C@H]3CCC[C@@H]3OCc3ccc(-c4ccc(CN5CCN(C)CC5)cc4)cc3)c2)cc1` [Example 376, 2-amino-5-(4-methoxyphenyl)-N-((1S,2S)-2-((4′-((4-methyl-piperazin-1-yl)methyl)-[1,1′-biphenyl]-4-yl)methoxy)cyclopentyl)nicotinamide] yielded a GI50 of less than 100 nM.
In the case of `CC(c1ccc(-c2ccc(CO[C@H]3CCC[C@@H]3NC(=O)c3cc(-c4cccnc4F)cnc3N)cc2)cc1)N1CCN(CCO)CC1` (stereo partly drawn) [Example 238, 6-amino-2′-fluoro-N-((1S,2S)-2-((4′-(1-(4-(2-hydroxyethyl)-piperazin-1-yl)ethyl)-[1,1′-biphenyl]-4-yl)methoxy)cyclopentyl)-[3,3′-bipyridine]-5-carboxamide], the GI50 is reported as less than 100 nM.
`C[C@@H](c1ccc(-c2ccc(CO[C@H]3CCC[C@@H]3NC(=O)c3cc(-c4ccc(F)nc4)cnc3N)cc2)cc1)N1CCN(CCO)CC1` [Example 226, 6-amino-6′-fluoro-N-((1S,2S)-2-((4′-((S)-1-(4-(2-hydroxyethyl)piperazin-1-yl)ethyl)-[1,1′-biphenyl]-4-yl)methoxy)cyclopentyl)-[3,3′-bipyridine]-5-carboxamide] showed a GI50 of less than 100 nM.
For `CN1CCC(n2cc(-c3cnc(N)c(C(=O)N[C@H]4CCC[C@@H]4OCc4ccc(-c5ccc(CN6CCN(C)CC6)cc5)cc4)c3)cn2)CC1` [Example 366, 2-amino-N-((1S,2S)-2-((4′-((4-methylpiperazin-1-yl)methyl)-[1,1′-biphenyl]-4-yl)methox)cyclopentyl)-5-(1-(1-methylpiperidin-4-yl)-1H-pyrazol-4-yl)nicotinamide], the GI50 was less than 100 nM.
With `CN1CCN(Cc2ccc(-c3ccc(CO[C@H]4CCC[C@@H]4NC(=O)c4cc(-c5cnn(C)c5)cnc4N)cc3)cc2O)CC1` [Example 199, 2-amino-N-((1S,2S)-2-((3′-hydroxy-4′-((4-methylpiperazin-1-yl)methyl)-[1,1′-biphenyl]-4-yl)methoxy)cyclopentyl)-5-(1-methyl-1H-pyrazol-4-yl)nicotinamide] the GI50 was less than 100 nM.
Molecule `CC(c1c(F)cc(-c2ccc(CO[C@H]3CCC[C@@H]3NC(=O)c3cc(-c4cnn(C)c4)cnc3N)cc2)cc1F)N1CCN(CCO)CC1` (stereo partly drawn) [Example 212, 2-amino-N-((1S,2S)-2-((3′,5′-difluoro-4′-(1-(4-(2-hydroxyethyl)-piperazin-1-yl)ethyl)-[1,1′-biphenyl]-4-yl)methoxy)cyclopentyl)-5-(1-methyl-1H-pyrazol-4-yl)nicotinamide] has a GI50 greater than 1000 nM.
Work on `C[C@H](c1ccc(-c2ccc(CO[C@H]3CCC[C@@H]3NC(=O)c3cc(-c4ccc(F)nc4)cnc3N)cc2)cc1)N1CCN(CCO)CC1` [Example 227, 6-amino-6′-fluoro-N-((1S,2S)-2-((4′-((R)-1-(4-(2-hydroxyethyl)-piperazin-1-yl)ethyl)-[1,1′-biphenyl]-4-yl)methoxy)cyclopentyl)-[3,3′-bipyridine]-5-carboxamide] yielded a GI50 of less than 100 nM.
`CC(c1ccc(-c2ccc(CO[C@H]3CN(C)C[C@@H]3NC(=O)c3cc(-c4cnn(C)c4)cnc3N)cc2)cc1)N1CCN(CCO)CC1` (stereo partly drawn) [Example 443, 2-amino-N-((3S,4S)-4-((4′-(1-(4-(2-hydroxyethyl)piperazin-1-yl)ethyl)-[1,1′-biphenyl]-4-yl)methoxy)-1-methylpyrrolidin-3-yl)-5-(1-methyl-1H-pyrazol-4-yl)nicotinamide] showed a GI50 of less than 100 nM.

From patent US10947215B2, “Heteroaryl compounds and their use as therapeutic drugs” (Dong-A Socio Holdings Co., Ltd., priority 2015, dated 2021)
